This is an account of results in article PMC9917023, “Stabilization of Monomeric Tau Protein by All D-Enantiomeric Peptide Ligands as Therapeutic Strategy for Alzheimer’s Disease and Other Tauopathies” (International Journal of Molecular Sciences, 2023).

Molecules are shown by their SMILES. Non-standard residues stand in square brackets, D forms with d. Residues, ends and D or L forms follow the SMILES beside them.

The target in data set [1] is T1, monomeric full-length tau 441 (Homo sapiens, UniProt P10636).
T1 construct: The gene for the human full-length tau was prepared on a plasmid called pET28a(+)-tau2N4R; made in house; host or cells: E. coli pRare
T1 sequence (P10636 1-441 isoform P10636-8): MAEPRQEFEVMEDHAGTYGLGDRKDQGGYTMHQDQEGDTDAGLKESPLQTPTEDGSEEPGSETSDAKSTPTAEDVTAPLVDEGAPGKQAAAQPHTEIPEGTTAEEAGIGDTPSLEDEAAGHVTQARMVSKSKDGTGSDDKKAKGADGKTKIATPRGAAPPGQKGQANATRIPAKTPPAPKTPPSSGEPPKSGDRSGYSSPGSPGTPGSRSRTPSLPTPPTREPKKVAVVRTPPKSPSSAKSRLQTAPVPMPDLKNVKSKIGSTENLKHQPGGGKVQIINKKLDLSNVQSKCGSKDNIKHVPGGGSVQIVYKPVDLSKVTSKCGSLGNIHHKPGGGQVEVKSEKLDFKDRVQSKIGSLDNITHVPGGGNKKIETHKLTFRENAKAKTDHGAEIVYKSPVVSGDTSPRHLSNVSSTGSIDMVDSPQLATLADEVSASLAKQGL
Nature of the data set: SPR measurement (Biacore T200, multicycle). The following applies: compound immobilized on CM5 chip, tau as analyte, 1:1 fit, dissociation time 60 min; read-out: dissociation rate (kd). The format is binding. As to the method: Figure 8 SPR measurements of TF2D-5 and TF2D-5a with monomeric full-length tau 441 and tau repeat region 3. […] The concentration of tau during the measurement ranged from 3.125 nM to 25 nM. […] Tau was used in concentrations ranging from 31.25 nM to 500 nM. SPR measurements of A and B were recorded on a T200 Biacore instrument, the corresponding compound was immobilized on a CM5 chip from Cytiva while monomeric tau served as analyte. Tests were performed with TBS pH 7.4, 0.05% Tween20 and 10 µM DTT as running buffer. Fit calculation was completed with the internal evaluation software of the T200 Biacore. A 1:1 model was used for both fits. […] The concentrations for the single cycle measurement ranged from 3.125 nM to 100 nM. Measurements of C were performed on a Biacore 8K using a CM5 chip from Cytiva. TF2D-5a was immobilized on the chip while the R3 region of tau was used as analyte. PBS pH 7.4 with 0.05% Tween20 as used as running buffer. Fit calculation was performed using the Biacore insight evaluation software and a 1:1 model. […]
Measurements of TF2D-5 and TF2D-5a against full-length tau 441 were performed on a Biacore T200 (Biacore, GE Healthcare, Uppsala, Sweden) using multicycle experiments. […] The data were evaluated using the Biacore T200 Evaluation Software 3.2 using a 1:1 fit (RI = 0).

Data set [2] concerns PC12 cells. Nature of the data set: Cell-viability assay (MTT). In kind it is cell-based, rat. The following applies: 0.2, 1 and 5 µM, 24 h, 37 °C. How it is done: Human […] SH-SY5Y cells and rat pheochromocytoma PC12 cells were cultivated in RPMI medium with 10% fetal bovine serum and 5% horse serum. On a collagen-coated 96-well plate (Gibco, Life Technology, Carlsbad, CA, USA), 10.000 cells were seeded per well. The plate was incubated for 24 h at 37 °C and 5% CO2. TF2D-5 and TF2D-5a were added to the cells at concentrations of 0.2 µM, 1 µM, and 5 µM, respectively. As a positive control, 0.1% Trion X-100 was used. A medium was used as a negative control. The samples were incubated for a further 24 h at 37 °C and 5% CO2. Cell viability was determined by using the Cell Proliferation Kit 1 (MTT) (Roche, Basel, Switzerland) according to the instruction manual. The absorbance of generated formazan products was measured using a CLARIOstar plate reader (BMG, Offenburg, Germany). Absorption at 570 nm was measured and referenced against absorbance at 660 nm.
Figure S3. Peptide toxicity assay for different concentrations of TF2D -5 and TF2D-5a.
For this assay the compounds TF2D -5 and TF2D-5a were incubated on SHSY5Y and PC12 cells for 24 h at 37 °C and 5 % CO2. The “Cell Proliferation Kit 1” from Roche was used for the MTT assay. RPMI with 10 % HS and 5 % FBS was used as cell medium. As […] 0.1 % Triton X100 was used. For both assays no negative effect on the cell viability could be observed by addition of both compounds. […]

Data set [3] can be described thus: Stability in human blood plasma. In kind it is in vitro ADME. The following applies: K3EDTA human blood plasma, after 48 h; read-out: still detectable in human blood plasma. As to the method: Figure 12 Stability assay of TF2D-5 and TF2D-5a using different simulated human body fluids. (A) Stability of compounds in simulated gastric fluid (SGF). The simulated gastric fluid consisted of 2 mg/mL sodium chloride, 3.2 mg/mL pepsin, and 80 mM HCl; pH 1. (B) Stability of TF2D-5 and TF2D-5a in simulated intestinal fluid (SIF). Simulated intestinal fluid consisted of 6.8 mg/mL potassium dihydrogen phosphate, 10 mg/mL pancreas powder, and 15.4 mM NaOH; pH 6.8. (C) Stability of TF2D-5 and TF2D-5a in human blood plasma. K3EDTA human blood plasma was purchased from BioTrend. (D) Stability of TF2D-5 and TF2D-5a in human liver microsomes. Human liver microsomes consisted of 6 mg/mL protein (containing Cytochrome P450 (CYP) enzymes), 75 mM sucrose, 1.3 mM NADPH, 3.3 mM D-glucose-6-phosphat, 0.2 u/mL D-glucose-6-phosphat dehydrogenase, 3.3 mM magnesium chloride, and 100 mM potassium phosphate; pH 7.4.
The stability of the compounds was tested according to Elfgen et al. and Schemmert et al. Exceptions included the extraction of plasma, simulated gastric fluid (SGF), and simulated intestinal fluid (SIF) samples. These were obtained by the addition of 12.5 µL 0.35 M ZnSO4, followed by vortexing, the addition of 12.5 µL 0.5 M HCl, additional vortexing, and centrifugation at 14,000× g for 10 min at 4 °C.

For `CC[C@@H](C)[C@@H](NC(=O)[C@@H](Cc1c[nH]cn1)NC(=O)CNC(=O)CNC(=O)[C@H]1CCCN1C(=O)[C@H](NC(=O)[C@@H](CCCCN)NC(=O)[C@@H](Cc1ccccc1)NC(=O)[C@@H](CC(C)C)NC(=O)[C@H](NC(=O)[C@@H](CCC(N)=O)NC(=O)[C@@H](Cc1ccc(O)cc1)NC(=O)CNC(=O)CNC(=O)[C@H](N)CC(=O)O)[C@H](C)CC)[C@H](C)CC)C(=O)N[C@H](Cc1c[nH]cn1)C(N)=O` [TF2D-5] (H-[dD]GG[dY][dQ][dI][dL][dF][dK][dI][dP]GG[dH][dI][dH]-NH2), the koff in data set [1] stood at 1.9e-05 s⁻¹. Besides, the “toxicity (cell viability, MTT)” value in data set [2] was “not toxic”. Further, the remaining at 48 h in data set [3] worked out at 97.4%.

In the case of `CC[C@@H](C)[C@@H](NC(=O)[C@@H](Cc1c[nH]cn1)NC(=O)CNC(=O)CNC(=O)[C@H]1CCCN1C(=O)[C@H](NC(=O)[C@@H](CCCCN)NC(=O)[C@@H](Cc1ccccc1)NC(=O)[C@@H](CC(C)C)NC(=O)[C@H](NC(=O)[C@@H](CCC(N)=O)NC(=O)[C@@H](Cc1ccc(O)cc1)NC(=O)CNC(=O)CNC(=O)[C@H](N)CC(=O)O)[C@H](C)CC)[C@H](C)CC)C(=O)N[C@H](Cc1c[nH]cn1)C(=O)N[C@H](CCCNC(=N)N)C(=O)N[C@H](CCCNC(=N)N)C(=O)N[C@H](CCCNC(=N)N)C(=O)N[C@H](CCCNC(=N)N)C(=O)N[C@H](CCCNC(=N)N)C(N)=O` [TF2D-5a] (H-[dD]GG[dY][dQ][dI][dL][dF][dK][dI][dP]GG[dH][dI][dH][dR][dR][dR][dR][dR]-NH2), the koff in data set [1] was 4.3e-05 s⁻¹. In addition, the “toxicity (cell viability, MTT)” value in data set [2] is listed as “not toxic”. In data set [3], the remaining at 48 h was determined as 86.5%.
